Assay results from patent US20220133842A1 (priority 2019, published 2022).
“And” between values parts separate entries of the source, which are not always exact repeats. Equal entries are not always repeated.

What was measured:
[1] = system: Clostridium perfringens (ATCC 13124); experiment: microbe, parasite or virus in culture; details: ATCC13124
[2] = system: Acinetobacter baumannii (CIP 110431); assay type: cell-based
[3] = system: Citrobacter farmeri (ATCC 51633); assay type: cell-based
[4] = system: Citrobacter rodentium (ATCC 51116); assay type: cell-based
[5] = system: Escherichia coli (ATCC 8739); assay type: cell-based
[6] = system: Klebsiella pneumoniae (DSMZ 26371); assay type: cell-based
[7] = system: Klebsiella variicola (DSM 15968); assay type: cell-based
[8] = system: Pseudomonas aeruginosa (CIP 107398); assay type: cell-based
[9] = system: Salmonella enterica (CIP 80.39); assay type: cell-based
[10] = system: Shigella flexneri (ATCC 12022); assay type: cell-based
[11] = system: Bacteroides thetaioataomicron (DSM 2255); experiment: microbe, parasite or virus in culture; assay type: cell-based
[12] = system: Helicobacter pylori (ATCC 43504); experiment: microbe, parasite or virus in culture; assay type: cell-based
[13] = system: Arthrobacter gandavensis (DSM 2447); assay type: cell-based
[14] = system: Bacillus cereus (DSM 31); assay type: cell-based
[15] = system: Bacillus subtilis (DSM 347); assay type: cell-based
[16] = system: Lactococcus lactis (DSM 20481); assay type: cell-based
[17] = system: Listeria monocytogenes (DSM 20600); assay type: cell-based
[18] = system: Micrococcus luteus (DSM 20030); assay type: cell-based
[19] = system: Staphylococcus aureus MRSA USA300 (ATCC BAA-1717); assay type: cell-based
[20] = system: Staphylococcus aureus (ATCC 6538P); assay type: cell-based
[21] = system: Clostridium botulinum (DSM 1985); experiment: microbe, parasite or virus in culture; assay type: cell-based
[22] = system: Clostridium coccoides (DSM 935); experiment: microbe, parasite or virus in culture; assay type: cell-based
[23] = system: Clostridium difficile (DSM 1296); experiment: microbe, parasite or virus in culture; assay type: cell-based
[24] = system: Clostridium nexile (DSM 1787); experiment: microbe, parasite or virus in culture; assay type: cell-based
[25] = system: Clostridium propionicum (DSM 6251); experiment: microbe, parasite or virus in culture; assay type: cell-based
[26] = system: Enterococcus faecalis (DSM 13591); experiment: microbe, parasite or virus in culture; assay type: cell-based
[27] = system: Lactobacillus acidophilus (DSM 20079); experiment: microbe, parasite or virus in culture; assay type: cell-based
[28] = system: Propionibacterium acnes (ATCC 6919); experiment: microbe, parasite or virus in culture; assay type: cell-based
[29] = system: Streptococcus pyogenes (DSM 20565); experiment: microbe, parasite or virus in culture; assay type: cell-based
[30] = system: Streptococcus thermophilus (ATCC LMD-9); experiment: microbe, parasite or virus in culture; assay type: cell-based
[31] = system: Mycobacterium smegmatis (ATCC 700084); assay type: cell-based
[32] = system: Aspergillus flavus (DSM 1959); assay type: cell-based
[33] = system: Aspergillus niger (ATCC 9142); assay type: cell-based
[34] = system: Aspergillus ochraceus (DSM 824); assay type: cell-based
[35] = system: Candida albicans (DSM 10697); assay type: cell-based
[36] = system: Fusarium graminearum (DSM 1095); assay type: cell-based
[37] = system: Fusarium oxysporum (DSM 62316); assay type: cell-based
[38] = system: Fusarium verticillioides (DSM 62264); assay type: cell-based
[39] = system: Penicillium verrucosum (DSM 12639); assay type: cell-based
[40] = system: clinical strains of Clostridium perfringens isolated from human patients or animals; assay type: cell-based
[41] = system: Clostridium perfringens strain (ATCC 13124) and clinical strains of Clostridium perfringens; assay type: cell-based
[42] = system: Clostridium perfringens (ATCC13124); assay type: cell-based
[43] = system: Caco-2 cells (ATCC HTB-37); experiment: cells; assay type: cell-based, human; details: read-out: IC50 (concentration causing 50% cell death)
[44] = system: T84 cells (ATCC CCL-248); experiment: cells; assay type: cell-based, human; details: read-out: IC50 (concentration causing 50% cell death)
[45] = system: IPEC-J2 cells; experiment: cells; assay type: cell-based, pig; details: read-out: IC50 (concentration causing 50% cell death)
[46] = system: Clostridium perfringens (ATCC 13124); assay type: cell-based
[47] = system: Clostridium perfringens (ATCC 13124); assay type: cell-based; remark: listed apart in the source
[48] = system: Clostridium perfringens (ATCC 13124)
[49] = system: human (Caco-2 and T84) and pig (IPEC-J2) intestinal cells

Question: For CN(C)[C@@H]1C(O)=C(C(N)=O)C(=O)[C@@]2(O)C(O)=C3C(=O)c4c(O)cccc4[C@@](C)(O)[C@H]3C[C@@H]12 [Tetracycline], which MIC [1] is on record?
Answer: Its MIC is 11.7 µM and 5.2 µg/mL.

Question: How did the MIC [2] turn out when Destruxin B was run?
Answer: Its MIC is >100 µM.

Question: What about the MIC [3] of the same compound?
Answer: Its MIC is >100 µM.

Question: And the MIC [4]?
Answer: Its MIC is >100 µM.

Question: What about the MIC [5] of the same compound?
Answer: Its MIC is >100 µM.

Question: And the MIC [6]?
Answer: The MIC was >100 µM.

Question: What about the MIC [7] of the same compound?
Answer: Its MIC is >100 µM.

Question: What about the MIC [8] of the same compound?
Answer: Its MIC is >100 µM.

Question: What about the MIC [9] of the same compound?
Answer: Its MIC is >100 µM.

Question: What about the MIC [10] of the same compound?
Answer: The MIC was >100 µM.

Question: What about the MIC [11] of the same compound?
Answer: Its MIC is >100 µM.

Question: What about the MIC [12] of the same compound?
Answer: Its MIC is >100 µM.

Question: And the MIC [13]?
Answer: Its MIC is >100 µM.

Question: And the MIC [14]?
Answer: The MIC was >100 µM.

Question: And the MIC [15]?
Answer: Its MIC is >100 µM.

Question: And the MIC [16]?
Answer: Its MIC is >100 µM.

Question: And the MIC [17]?
Answer: Its MIC is >100 µM.

Question: What about the MIC [18] of the same compound?
Answer: Its MIC is >100 µM.

Question: And the MIC [19]?
Answer: Its MIC is >100 µM.

Question: What about the MIC [20] of the same compound?
Answer: The MIC was >100 µM.

Question: What about the MIC [21] of the same compound?
Answer: The MIC was >100 µM.

Question: What about the MIC [22] of the same compound?
Answer: Its MIC is >100 µM.

Question: And the MIC [23]?
Answer: The MIC was >100 µM.

Question: And the MIC [24]?
Answer: Its MIC is >100 µM.

Question: And the MIC [25]?
Answer: Its MIC is >100 µM.

Question: And the MIC [26]?
Answer: Its MIC is >100 µM.

Question: And the MIC [27]?
Answer: Its MIC is >100 µM.

Question: What about the MIC [28] of the same compound?
Answer: Its MIC is >100 µM.

Question: What about the MIC [29] of the same compound?
Answer: The MIC was >100 µM.

Question: What about the MIC [30] of the same compound?
Answer: Its MIC is >100 µM.

Question: And the MIC [31]?
Answer: Its MIC is >100 µM.

Question: And the MIC [32]?
Answer: The MIC was >100 µM.

Question: What about the MIC [33] of the same compound?
Answer: The MIC was >100 µM.

Question: What about the MIC [34] of the same compound?
Answer: The MIC was >100 µM.

Question: And the MIC [35]?
Answer: The MIC was >100 µM.

Question: What about the MIC [36] of the same compound?
Answer: The MIC was >100 µM.

Question: And the MIC [37]?
Answer: The MIC was >100 µM.

Question: And the MIC [38]?
Answer: The MIC was >100 µM.

Question: What about the MIC [39] of the same compound?
Answer: The MIC was >100 µM.

Question: And the MIC [40]?
Answer: The MIC was 3 µM and 1.5 µM.

Question: And the “minimum bactericidal concentrations (BMC values)” value [41]?
Answer: The value was “identical to the MIC values”.

Question: What about the “change of MIC during exposure” value [42] of the same compound?
Answer: Its value is “do not change or change only slightly”.

Question: What about the IC50 [43] of the same compound?
Answer: Its IC50 is > 100 µM.

Question: What about the IC50 [44] of the same compound?
Answer: The IC50 was > 100 µM.

Question: What about the IC50 [45] of the same compound?
Answer: The IC50 was > 100 µM.

Question: And the “permeabilisation of the bacterial membrane” value [46]?
Answer: The value was “no permeabilisation”.

Question: What about the “morphological phenotype (mechanism of action)” value [47] of the same compound?
Answer: The value was “hypercondensation of bacterial DNA”.

Question: And the “MIC (mg/L)” value [48]?
Answer: Its value is 1.78 mg/L.

Question: And the “toxicity to intestinal cells” value [49]?
Answer: Its value is “not toxic”.
